Experiments:
[1] = system: human monocyte-derived primary macrophages; test: Adenoviral transduction of primary macrophages; type: cell-based; details: 10,000 viral particles/cell in 2.5% serum
Protocol: (§1) Day 6 dendritic cells (see Example 1(v) above), or mouse bone marrow derived dendritic cells or mouse Sca1+ve stem cells, see (i) and (ii) above, were plated at 5×10^4 cells per well in a 48 well plate in 500 μl complete medium and allowed to settle for 3 hours at 37° C. Transductions were carried out in complete media, with virus being added at 100,000 viral particles/cell for 24 hours. Cells were harvested by scraping, spun down at 650 g (2000 rpm) for 5 min, resuspended in 300 μl PBS, and kept on ice before analysis. Viral transduction as determined by percentage of GFP positive cells was measured by FACS analysis. To measure percentage viability, 10 μl of 7-amino-actinomycin D (7AAD; Sigma, Poole, Dorset) was added immediately prior to analysis. Viral transduction of macrophages was carried out at 10,000 particles/cell in medium containing 2.5% FCS. For other cell types, cells were seeded overnight at 5×10^4 cells per well in 24-well plates in the appropriate media. Adenovirus was added in OptiMEM at 10,000 viral particles/cell, 1 ml per well in triplicate and incubated for 24 h at 37° C. Cells were then washed twice in PBS, trypsinised, triplicate wells pooled, spun down at 350×g for 5 min and resuspended in 300 μl PBS before analysis by flow cytometry where cell viability was to be measured, 10 μl 7AAD was added just prior to analysis.
10 mls of peripheral blood were diluted 1:1 with HBSS then layered on Lymphoprep (Nycomed), spun at 750 g for 30 min and purified […] were isolated from the interface. Excess Lymphoprep was removed by spinning cells down at 250 g for 10 min and any platelets present were removed by washing in HBSS twice, spinning the cells at 1200 rpm for 10 min each time. Monocytes were then isolated using MACs CD14 microbeads as described in the manufacturer's protocol. The mononuclear cells were plated into a […] flask in 10% FCS, RPMI for 1-2 hours (1 flask per 10 ml blood) before removing the supernatant and adding fresh 10% FCS, RPMI+10 ng/ml MCSF (macrophage colony stimulating factor). Half the medium was replaced with fresh 10% FCS, RPMI+MCSF (10 ng/ml) after 48 hours and the cells were used at day 6, harvesting by scraping the cells from the well.
Viral transduction was carried out at 10,000 particles/cell in medium containing 2.5% FCS. Viral transduction as determined by percentage of GFP positive cells was measured by FACS analysis. Cells were pooled from three separate transduction experiments for the calculation of results.

[2] = system: 1HAEo- cells; test: Adenoviral transduction of 1HAEo- cells; type: cell-based, human; details: 10,000 particles per cell in OptiMEM
Protocol: as §1, with “For other cell types, cells were seeded overnight at 5×10^4 cells per well in 24-well plates in the appropriate media. Adenovirus was added in OptiMEM at 10,000 viral particles/cell, 1 ml per well in triplicate and incubated for 24 h at 37° C.” left out
(§2) For transduction of these other cell types, cells were seeded overnight at 5×10^4 cells per well in 24 well plates in the appropriate media. […] Where cell viability was to be measured, 10 μl 7-amino-actinomycin D (7AAD; Sigma, Poole, Dorset) was added just prior to analysis. […]

[3] = system: Neuro-2A cells; test: Adenoviral transduction of Neuro-2A cells; type: cell-based, mouse; details: 10,000 particles per cell in OptiMEM
Protocol: as §1, with “For other cell types, cells were seeded overnight at 5×10^4 cells per well in 24-well plates in the appropriate media. Adenovirus was added in OptiMEM at 10,000 viral particles/cell, 1 ml per well in triplicate and incubated for 24 h at 37° C.” left out
as §2

[4] = system: mouse Sca1-positive stem cells; test: Adenoviral transduction of mouse Sca1+ve stem cells; type: cell-based
Protocol: Mouse bone marrow cells were isolated as above and Sca1+ve cells were isolated using MACs Sca1 microbeads (Miltenyi Biotec, Bisley, U.K.). These cells were plated at 7×10^4 cells/500 μl in RPMI with Glutamax-1 containing 30% FCS and penicillin/streptomycin and the following cytokines murine SCF (50 ng/ml; Preprotech, London, UK), IL-6 (20 ng/ml; Preprotech, London, UK) and Flt3-L (10 ng/ml) (R&D Systems, Oxford, U. K.).
as §1, with “To measure percentage viability, 10 μl of 7-amino-actinomycin D (7AAD; Sigma, Poole, Dorset) was added immediately prior to analysis. Viral transduction of macrophages was carried out at 10,000 particles/cell in medium containing 2.5% FCS. For other cell types, cells were seeded overnight at 5×10^4 cells per well in 24-well plates in the appropriate media. Adenovirus was added in OptiMEM at 10,000 viral particles/cell, 1 ml per well in triplicate and incubated for 24 h at 37° C.” left out

[5] = system: human monocyte-derived immature dendritic cells; type: cell-based; details: 100,000 viral particles/cell
Text: Ad5 particles with the DC-binding peptides incorporated into the HI loop of the fibre protein were produced essentially as described previously ^12. Complementary oligonucleotides encoding the peptide sequences SHVKLNS [SEQ. ID. NO.:29] (5′ CC GGAAGCCACGTGAAGCTGAACAGCG 3′ [SEQ. ID. NO.:58] and 5′ CC GGCGCTGTTCAGCTTCACGTG GCTT 3′[SEQ. ID. NO.:59]) or APSNSTA [SEQ. ID. NO.:15] (5′ CC GGAGCCCCCAGCAACAGCACCGCCG 3′ [SEQ. ID. NO.:61] and 5′ CC GGCGGCGGTGCTGTTGCTGGG GGCT 3′ [SEQ. ID. NO.:62]) were synthesized (Operon Technologies, Alameda Calif. U.S.A.). The oligo pairs were then kinased, annealed, and ligated into the unique BspE1 site of pDV137 ^12, an expression construct encoding an Ad5 fibre protein with a double point mutant (KO1) which blocks CAR binding and a linker/restriction site in the HI loop, to create pDV178 (SHVKLNS) and pDV179 (APSNSTA). Following sequence confirmation, the plasmids were used to trans-complement the fibre-deleted vector Ad5.GFP.δF^18 by transient transfection into 293 cells as described ^19. Viral particles were purified by freeze/thaw lysis and CsCl gradient centrifugation and dialyzed into 40 mM TRIS-pH 8.1/0.9% NaCl/10% glycerol and stored at −80° C. Virus was quantified by protein assay (BioRad, Hercules Calif., U.S.A.) against BSA standards and using the relation 1 μg viral protein=4×10^9 viral particles.
Retargeted adenoviruses carrying a peptide A or B were used for the transduction experiments described below. Wild type adenovirus type 5 and type 5 adenovirus having a KO1 fibre, all supplied by Dr Dan von Seggern, and as described in Nicklin 2001 Mol Ther 2001 Dec.; 4(6):534-42), were used as controls.
as §1
Cells were pooled from three separate transduction experiments for the calculation of results.

[6] = system: HMEC-1 cells; test: Adenoviral transduction of HMEC-1 cells; type: cell-based, human; details: 10,000 particles per cell in OptiMEM
Protocol: as §1, with “For other cell types, cells were seeded overnight at 5×10^4 cells per well in 24-well plates in the appropriate media. Adenovirus was added in OptiMEM at 10,000 viral particles/cell, 1 ml per well in triplicate and incubated for 24 h at 37° C.” left out
as §2

[7] = system: HepG2 cells; test: Adenoviral transduction of HepG2 cells; type: cell-based, human; details: 10,000 particles per cell in OptiMEM
Protocol: as §1, with “For other cell types, cells were seeded overnight at 5×10^4 cells per well in 24-well plates in the appropriate media. Adenovirus was added in OptiMEM at 10,000 viral particles/cell, 1 ml per well in triplicate and incubated for 24 h at 37° C.” left out
as §2

[8] = system: primary mouse dendritic cells; test: Adenoviral transduction of mouse dendritic cells; type: cell-based; details: bone marrow derived DCs
Protocol: Mouse dendritic cells were prepared from whole bone marrow flushed from the marrow cavities of the femur and tibia of 5-7 week old A/J mice and cultured in Hepes buffered RPMI+Glutamax (InVitrogen, Paisley, U. K.) supplemented with 10% FCS, penicillin/streptomycin and 20 ng/ml recombinant GM-CSF. Cytokines were added to the same concentration on day 3 and the dendritic cells isolated from the floating cell fraction by MACs CD11c microbeads (Miltenyi Biotec, Bisley, U. K.) on day 6.
as §1, with “To measure percentage viability, 10 μl of 7-amino-actinomycin D (7AAD; Sigma, Poole, Dorset) was added immediately prior to analysis. Viral transduction of macrophages was carried out at 10,000 particles/cell in medium containing 2.5% FCS. For other cell types, cells were seeded overnight at 5×10^4 cells per well in 24-well plates in the appropriate media. Adenovirus was added in OptiMEM at 10,000 viral particles/cell, 1 ml per well in triplicate and incubated for 24 h at 37° C.” left out

[9] = system: day 6 immature dendritic cells; test: Maturation of adenovirus-transduced dendritic cells in response to LPS (marker flow cytometry); type: cell-based, human; details: LPS 50 ng/ml; virus 100,000 particles per cell
Protocol: Day 6 immature dendritic cells were infected with retargeted Ad or Ad5 at 100,000 particles per cell in complete medium for 24 hours, with E. coli 026:B6 lipopolysaccharide (LPS) added following 3 hours incubation at a concentration of 50 ng/ml. As controls, dendritic cells were either incubated in complete medium for 24 hours or matured by the addition of LPS in complete medium for 24 hours, In all samples IL-4 and GM-CSF were present in the complete medium at 25 ng/ml and 100 ng/ml respectively. Cells were then phenotyped by staining as follows: a minimum of 5×10^4 cells in a volume of less than 2 ml medium were added to the recommended amount of antibody and incubated for 20 min on ice. 2 ml of ice-cold PBS was added before centrifugation at 300×g for 5 min at 4° C. The supernatant was flicked off and the pellet resuspended in 300 μl ice cold PBS. Cells from each sample were stained with antibodies to HLA-DR, CD40, CD80, CD83, CD86 and isotype matched control antibodies. Where cell viability was also measured, […] of 7AAD was added immediately prior to analysis. Cells were analysed by flow cytometry using a Epics XL (Beckman Coulter, High Wycombe, UK.) and the EXPO32 analysis software (Beckman Coulter).

APSNSTA (Synthetic peptide binding to dendritic cells)
Transduction, % cells transduced [1]: 34.6% | Transduction, % cells transduced ([1]; listed as B): 34.6% | Transduction, % cells transduced [2]: 79% | Transduction, % GFP-positive cells [3]: 53.7% | Transduction efficiency [4]: 5.4% | Transduction (% GFP positive cells), donor A ([5]; complete medium, 24 hours, donor A): 65.1% | Transduction (% GFP positive cells), donor B ([5]; complete medium, 24 hours, donor B): 78.9% | Percentage cell death, donor A ([5]; donor A, 7AAD): (6.6) % | Percentage cell death, donor B ([5]; donor B, 7AAD): (11.6) % | Transduction, % cells transduced [6]: 94.2% | Transduction, % cells transduced [7]: 79.7% | Transduction efficiency [8]: 54.1% | CD40 positive cells [9]: 9.8% | CD80 positive cells [9]: 10.7% | CD83 positive cells [9]: 18.0% | CD86 positive cells [9]: 96.7% | HLA-DR positive cells [9]: 72.9%

From US7820624B2, “Peptide ligands” (ICH Productions Limited, priority 2003, dated 2010)
